# Data as given in patent US20140120087A1, “TRIAZOLOPYRIDINES” (BAYER INTELLECTUAL PROPERTY GMBH, priority 2011, published 2014).
# pIC50: −log10 of the molar value.
# Key:
# [1] = target: T1, Mps-1 kinase (Homo sapiens, UniProt P33981); experiment: Mps-1 kinase assay with 2 mM ATP (TR-FRET)
# T1 sequence (P33981 1-857): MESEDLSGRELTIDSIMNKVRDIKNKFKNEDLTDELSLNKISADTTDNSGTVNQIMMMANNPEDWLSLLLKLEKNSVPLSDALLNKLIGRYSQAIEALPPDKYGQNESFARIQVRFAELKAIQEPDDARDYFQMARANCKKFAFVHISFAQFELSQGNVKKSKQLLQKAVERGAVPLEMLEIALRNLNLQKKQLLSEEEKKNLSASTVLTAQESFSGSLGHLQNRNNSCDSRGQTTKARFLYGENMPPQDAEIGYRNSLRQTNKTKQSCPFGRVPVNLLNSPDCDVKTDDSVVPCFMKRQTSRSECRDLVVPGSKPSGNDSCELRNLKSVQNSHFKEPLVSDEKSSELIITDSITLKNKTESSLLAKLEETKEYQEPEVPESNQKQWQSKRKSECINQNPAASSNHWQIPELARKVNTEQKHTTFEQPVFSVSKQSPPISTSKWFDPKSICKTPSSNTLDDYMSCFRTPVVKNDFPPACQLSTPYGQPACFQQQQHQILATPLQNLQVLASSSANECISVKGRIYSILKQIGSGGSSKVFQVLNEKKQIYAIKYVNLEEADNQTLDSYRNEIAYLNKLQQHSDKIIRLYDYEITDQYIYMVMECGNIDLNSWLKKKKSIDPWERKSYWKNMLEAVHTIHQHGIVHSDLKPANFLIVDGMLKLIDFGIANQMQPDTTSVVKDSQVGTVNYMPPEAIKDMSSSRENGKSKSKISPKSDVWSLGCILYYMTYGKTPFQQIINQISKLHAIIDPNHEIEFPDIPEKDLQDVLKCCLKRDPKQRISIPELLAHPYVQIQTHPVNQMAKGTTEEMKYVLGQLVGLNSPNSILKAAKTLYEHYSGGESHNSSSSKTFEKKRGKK
# [2] = target: T1, Mps-1 kinase; experiment: Mps-1 kinase assay with 10 μM ATP (TR-FRET)
Structure (SMILES),pIC50 [1],pIC50 [2]
"COc1ccc(Nc2nc3ccc(-c4ccc(NC(=O)Cc5ccc(F)cc5)cc4)cn3n2)c(OC)c1 [Example 12.18, N-(4-{2-[(2,4-dimethoxy-phenyl)amino][1,2,4]-triazolo[1,5-a]pyridin-6-yl}phenyl)-2-(4-fluoro-phenyl)acetamide]",8.82,≥ 9.00
"COc1cc(C(=O)NCCCF)ccc1Nc1nc2ccc(-c3ccc(NC(=O)Cc4ccc(F)cc4)cc3)cn2n1 [Example 12.11, 4-{[6-(4-{[(4-fluorophenyl)-acetyl]amino}phenyl)[1,2,4]triazolo[1,5-a]pyridin-2-yl]amino}-N-(3-fluoro-propyl)-3-methoxybenzamide]",8.92,≥ 9.00
"Cc1cc(S(C)(=O)=O)ccc1Nc1nc2ccc(-c3ccc(C(=O)NCc4ccc(Cl)cc4)cc3)cn2n1 [Example 12.74, N-(4-chlorobenzyl)-4-(2-{[2-methyl-4-(methylsulfonyl)-phenyl]amino}[1,2,4]triazolo [1,5-a]pyridin-6-yl)-benzamide]",7.80,≥ 9.00
"CS(=O)(=O)c1ccc(Nc2nc3ccc(-c4ccc(NC(=O)Cc5ccc(F)cc5)cc4)cn3n2)c(OCC(F)(F)F)c1 [Example 01.34, 2-(4-fluorophenyl)-N-[4-(2-{[4-(methylsulfonyl)-2-(2,2,2-trifluoroethoxy)-phenyl]amino}[1,2,4]triazolo[1,5-α]pyridin-6-yl)phenyl]acetamide]",≥ 9.00,≥ 9.00
"COc1cc(S(=O)(=O)NC(C)(C)C)ccc1Nc1nc2ccc(-c3ccc(C(=O)NCc4ccc(F)cc4)cc3)cn2n1 [Example 12.52, 4-(2-{[4-(tert-butyl-sulfamoyl)-2-methoxy-phenyl]amino}[1,2,4]-triazolo[1,5-a]pyridin-6-yl)-N-(4-fluorobenzyl)-benzamide]",7.85,≥ 9.00
"CCNC(=O)c1cc(C)c(Nc2nc3ccc(-c4ccc(NC(=O)Cc5ccc(F)cc5)cc4)cn3n2)cn1 [Example 12.37, N-ethyl-5-{[6-(4-{[(4-fluoro-phenyl)acetyl]amino}-phenyl)[1,2,4]triazolo[1,5-a]pyridin-2-yl]amino}-4-methylpyridine-2-carboxamide]",7.89,≥ 9.00
"COc1cc(C(=O)NCCF)ccc1Nc1nc2ccc(-c3ccc(C(=O)NCc4ccc(F)cc4)cc3)cn2n1 [Example 12.45, 4-[(6-{4-[(4-fluorobenzyl)-carbamoyl]phenyl}[1,2,4]triazolo [1,5-a]pyridin-2-yl)-amino]-N-(2-fluoroethyl)-3-methoxybenzamide]",8.85,≥ 9.00
"CS(=O)(=O)c1ccc(Nc2nc3ccc(-c4ccc(C(=O)NCc5ccc(F)cc5)cc4)cn3n2)c(OC2CC2)c1 [Example 02.29, 4-(2-{[2-(cyclopropyloxy)-4-(methylsulfonyl)phenyl]amino}[1,2,4]triazolo-[1,5-α]pyridin-6-yl)-N-(4-fluorobenzyl)benzamide]",8.12,≥ 9.00
"COc1cc(C(=O)N(C)CC(F)(F)F)ccc1Nc1nc2ccc(-c3ccc(NC(=O)Cc4ccc(F)cc4)cc3)cn2n1 [Example 12.09, 4-{[6-(4-{[(4-fluorophenyl)-acetyl]amino}phenyl)[1,2,4]triazolo[1,5-a]pyridin-2-yl]amino}-3-methoxy-N-methyl-N-(2,2,2-trifluoro-ethyl)benzamide]",8.60,≥ 9.00
"COc1cc(C(=O)N(C)CCN(C)C)ccc1Nc1nc2ccc(-c3ccc(NC(=O)Cc4ccc(F)cc4)cc3)cn2n1 [Example 12.08, N-[2-(dimethylamino)ethyl]-4-{[6-(4-{[(4-fluorophenyl)-acetyl]amino}phenyl)[1,2,4]triazolo[1,5-a]pyridin-2-yl]amino}-3-methoxy-N-methylbenzamide]",≥ 9.00,≥ 9.00
"CCN(C)C(=O)c1ccc(Nc2nc3ccc(-c4ccc(NC(=O)Cc5ccc(F)cc5)cc4)cn3n2)c(OC)c1 [Example 12.06, N-ethyl-4-{[6-(4-{[(4-fluorophenyl)acetyl]amino}-phenyl)[1,2,4]triazolo[1,5-a]pyridin-2-yl]amino}-3-methoxy-N-methyl-benzamide]",≥ 9.00,≥ 9.00
"Cc1cc(C(=O)N(C)C)ccc1Nc1nc2ccc(-c3ccc(NC(=O)Cc4ccc(F)cc4)cc3)cn2n1 [Example 12.31, 4-{[6-(4-{[(4-fluorophenyl)-acetyl]amino}phenyl)[1,2,4]triazolo[1,5-a]pyridin-2-yl]amino}-N,N,3-trimethyl-benzamide]",8.42,≥ 9.00
"Cc1cc(C(=O)NCCF)ccc1Nc1nc2ccc(-c3ccc(NC(=O)Cc4ccc(F)cc4)cc3)cn2n1 [Example 12.30, N-(2-fluoroethyl)-4-{[6-(4-{[(4-fluorophenyl)acetyl]-amino}phenyl)[1,2,4]-triazolo[1,5-a]pyridin-2-yl]amino}-3-methyl-benzamide]",8.37,≥ 9.00
"COc1cc(C(=O)NCC(F)(F)F)ccc1Nc1nc2ccc(-c3ccc(C(=O)NCc4ccc(Cl)cc4)cc3)cn2n1 [Example 12.72, 4-[(6-{4-[(4-chlorobenzyl)-carbamoyl]phenyl}[1,2,4]triazolo [1,5-a]pyridin-2-yl)-amino]-3-methoxy-N-(2,2,2-trifluoroethyl)benzamide]",7.80,≥ 9.00
"CCOc1cc(S(=O)(=O)CC)ccc1Nc1nc2ccc(-c3ccc(C(=O)NCc4ccc(F)cc4)cc3)cn2n1 [Example 02.26, 4-(2-{[2-ethoxy-4-(ethylsulfonyl)phenyl]amino}[1,2,4]triazolo[1,5-α]-pyridin-6-yl)-N-(4-fluorobenzyl)benzamide]",8.21,≥ 9.00
"CC(C)S(=O)(=O)c1ccc(Nc2nc3ccc(-c4ccc(NC(=O)Cc5ccc(F)cc5)cc4)cn3n2)c(OC(F)F)c1 [Example 12.26, N-[4-(2-{[2-(difluoro-methoxy)-4-(propan-2-ylsulfonyl)phenyl]amino}-[1,2,4]triazolo[1,5-a]pyridin-6-yl)phenyl]-2-(4-fluorophenyl)acetamide]",8.92,≥ 9.00
"CC(C)S(=O)(=O)c1ccc(Nc2nc3ccc(-c4ccc(C(=O)NCc5ccc(F)cc5)cc4)cn3n2)c(OC(F)F)c1 [Example 12.62, 4-(2-{[2-(difluoromethoxy)-4-(propan-2-ylsulfonyl)-phenyl]amino}[1,2,4]-triazolo[1,5-a]pyridin-6-yl)-N-(4-fluorobenzyl)-benzamide]",8.46,≥ 9.00
"COc1cc(C(=O)N(C)C)ccc1Nc1nc2ccc(-c3ccc(C(=O)NCc4ccc(F)cc4)cc3)cn2n1 [Example 12.46, 4-[(6-{4-[(4-fluorobenzyl)-carbamoyl]phenyl}[1,2,4]triazolo [1,5-a]pyridin-2-yl)-amino]-3-methoxy-N,N-dimethylbenzamide]",8.46,≥ 9.00
"Cc1cc(N(C)C)ccc1Nc1nc2ccc(-c3ccc(NC(=O)Cc4ccc(F)cc4)cc3)cn2n1 [Example 12.36, N-[4-(2-{[4-(dimethylamino)-2-methylphenyl]-amino}[1,2,4]triazolo[1,5-a]pyridin-6-yl)phenyl]-2-(4-fluorophenyl)acetamide]",8.46,≥ 9.00
"COc1cc(S(C)(=O)=O)ccc1Nc1nc2ccc(-c3ccc(C(=O)NCc4ccc(C)cc4)cc3)cn2n1 [Example 12.76, 4-(2-{[2-methoxy-4-(methyl-sulfonyl)phenyl]amino}-[1,2,4]triazolo[1,5-a]pyridin-6-yl)-N-(4-methyl-benzyl)benzamide]",8.13,≥ 9.00
"COc1cc(S(=O)(=O)NC(C)(C)C)ccc1Nc1nc2ccc(-c3ccc(NC(=O)Cc4ccc(F)cc4)cc3)cn2n1 [Example 12.15, N-[4-(2-{[4-(tert-butyl-sulfamoyl)-2-methoxy-phenyl]amino}[1,2,4]-triazolo[1,5-a]pyridin-6-yl)phenyl]-2-(4-fluoro-phenyl)acetamide]",8.80,≥ 9.00
"COc1cc(C(=O)NCCF)ccc1Nc1nc2ccc(-c3ccc(NC(=O)Cc4ccc(F)cc4)cc3)cn2n1 [Example 12.05, N-(2-fluoroethyl)-4-{[6-(4-{[(4-fluorophenyl)acetyl]-amino}phenyl)[1,2,4]-triazolo[1,5-a]pyridin-2-yl]amino}-3-methoxy-benzamide]",≥ 9.00,≥ 9.00
"CCOc1cc(C(=O)N(C)CC)ccc1Nc1nc2ccc(-c3ccc(NC(=O)Cc4ccc(F)cc4)cc3)cn2n1 [Example 12.19, 3-ethoxy-N-ethyl-4-{[6-(4-{[(4-fluorophenyl)acetyl]-amino}phenyl)[1,2,4]-triazolo[1,5-a]pyridin-2-yl]amino}-N-methyl-benzamide]",≥ 9.00,≥ 9.00
